{"source": "patent US7345091B2", "about": "“Carotenoid ether analogs or derivatives for the inhibition and amelioration of disease” (Cardax Pharmaceuticals, Inc., priority 2002, dated 2008)", "system": "superoxide anion", "assay": "Superoxide anion scavenging by EPR (DEPMPO spin trap) in phorbol ester-stimulated isolated neutrophils", "assay_type": "cell-based, human", "conditions": "for potency relative to the SOD mimetic positive control: adjusted for percent inhibition and tested dose", "protocol": "In an experiment, neutrophils were isolated on a Percoll gradient from whole blood from a human volunteer. The isolated neutrophils were then re-suspended in phosphate-buffered saline, and maximally stimulated with phorbol ester to induce the respiratory burst and production of superoxide anion. To the solution of activated human neutrophils, the disodium salt disuccinate astaxanthin derivative XVI was added at various concentrations, and the superoxide signal [as measured with electron paramagnetic resonance (EPR) spectroscopy] was subsequently measured. […] The disodium salt disuccinate astaxanthin derivative XVI tested at 100 μM scavenged 28% of the total signal. At 3 mM, almost no superoxide signal remained. […] In addition to reducing the superoxide anion signal important in ischemia-reperfusion injury, it is also likely that myocardial salvage can be achieved with the described carotenoid derivative, as superoxide anion plays a major role in tissue injury and death during prolonged myocardial ischemia. In a third experiment, neutrophils were again isolated on a Percoll gradient from whole blood from a second human volunteer. The isolated neutrophils were then re-suspended in phosphate-buffered saline, and maximally stimulated with phorbol ester to induce the respiratory burst and production of superoxide anion. […] Astaxanthin 2E was dissolved in HPLC grade dimethylsulfoxide (DMSO; Sigma-Aldrich, St. Louis, Mo.). The disodium disuccinate derivatives XVI of astaxanthin 2E were tested separately in […] formulations: statistical mixture of stereoisomers (as for astaxanthin, above, a 1:2:1 mixture of all-E; labeled as “mixture” in all tables and figures); 3S,3'S, and 3R,3'R (optical isomers or enantiomers); and meso (mixture of identical 3S,3'R and 3'S,3R; diastereomers of the enantiomeric pair). […] The disuccinate derivatives were first tested at the appropriate final concentrations in pure aqueous solution (deionized water) from stock solutions of 10 mM. Each of the four disuccinate derivatives were then tested from stock solutions prepared in a 1:2 mixture of ethanol (final concentration of EtOH in stock solution 331⁄3%; final concentration in isolated neutrophil assay 0.3%; HPLC grade ethanol, Sigma-Aldrich, St. Louis, Mo.) at 10 mM. […] Metaphore® Pharmaceuticals, Inc., St. Louis, Mo.) were also performed. Human polymorphonuclear leukocytes (PMNs) were isolated from freshly sampled venous blood of a single volunteer by Percoll density gradient centrifugation, which yielded PMNs with a purity of >95%. Each 10 mL of whole blood was mixed with 0.8 mL of 0.1 M EDTA and 25 mL of saline. The diluted blood was layered over 9 mL of Percoll at a specific density of 1.080 g/mL. After centrifugation at 400×g for 20 min at 20° C., the plasma, mononuclear cell, and Percoll layers were removed. Erythrocytes were lysed by addition of 18 mL of ice-cold water for 30 s, followed by 2 mL of 10× PIPES buffer (25 mM PIPES, 110 mM NaCl, and 5 mM KCl, titrated to pH 7.4 with NaOH). Cells were pelleted at 4° C., the supernatant was decanted, and the procedure was repeated. After the second hypotonic lysis, cells were washed twice with PAG buffer (PIPES buffer containing 0.003% human serum albumin and 0.1% glucose). Afterward, PMNs were counted by light microscopy on a hemocytometer. The final pellet was then suspended in PAG-CM buffer (PAG buffer with 1 mM CaCl2 and 1 mM MgCl2). All EPR measurements were performed using a Bruker ER 300 EPR spectrometer operating at X-band with a TM110 cavity. The microwave frequency was measured with a Model 575 microwave counter (EIP Microwave, Inc., San Jose, Calif.). To measure O^ -2 generation from phorbol-ester (PMA)-stimulated PMNs, EPR spin-trapping studies were performed using DEPMPO (Oxis, Portland, Oreg.) at 10 mM. 1×10^6 PMNs were stimulated with PMA (1 ng/mL) and loaded into capillary tubes for EPR measurements. […]", "note": "Structures can show the parent of a compound that is named as a salt. Where two headings read alike, the source gives them in different places."}
{"smiles": "CC1=C(/C=C/C(C)=C/C=C/C(C)=C/C=C/C=C(C)/C=C/C=C(C)/C=C/C2=C(C)C(=O)C(OC(=O)CCC(=O)O)CC2(C)C)C(C)(C)CC(OC(=O)CCC(=O)O)C1=O", "note": "(racemic) [XVI, Disodium Salt of the Disuccinic Acid Ester of Astaxanthin]", "values": [{"measurement": "total superoxide signal scavenged", "setting": "100 μM, first experiment (FIG. 2)", "value": 28, "unit": "%"}, {"measurement": "suppression of superoxide anion signal", "setting": "3 mM, first experiment (FIG. 2)", "value": "near complete suppression of the superoxide anion signal"}, {"measurement": "inhibition at 100 µM", "setting": "Homo sapiens, Neutrophil, Solvent EtOH (1:2 EtOH/water stock, 0.3% final), 0.1 mM, read-out: Mean (% inhibition) of superoxide anion signal", "value": "~40", "unit": "%"}, {"measurement": "inhibition at 500 µM", "setting": "Homo sapiens, Neutrophil, Solvent EtOH, 0.5 mM, read-out: Mean (% inhibition) of superoxide anion signal", "value": 60.1, "unit": "%"}, {"measurement": "inhibition at 1000 µM", "setting": "Homo sapiens, Neutrophil, Solvent EtOH, 1.0 mM, read-out: Mean (% inhibition) of superoxide anion signal", "value": 78, "unit": "%"}, {"measurement": "inhibition at 3000 µM", "setting": "Homo sapiens, Neutrophil, Solvent EtOH, 3.0 mM, read-out: Mean (% inhibition) of superoxide anion signal", "value": 95, "unit": "%"}, {"measurement": "inhibition at 100 µM", "setting": "Homo sapiens, Neutrophil, Solvent Water, 0.1 mM, read-out: Mean (% inhibition) of superoxide anion signal", "value": 19.3, "unit": "%"}, {"measurement": "Mean (% inhibition) of superoxide anion signal", "setting": "Solvent EtOH (1:2 EtOH/water stock, 0.3% final), 0.1 mM, listed as Mixture", "value": 38.0, "unit": "%"}, {"measurement": "potency relative to the SOD mimetic positive control", "value": "one to two orders of magnitude less potent"}, {"measurement": "potency relative to the SOD mimetic positive control", "setting": "listed as disodium disuccinate derivative", "value": "between one and two orders of magnitude less potent"}]}
